Test results: patent US20060068118A1, “Silicon-containing treatments for solid substrates” (priority 2003, published 2006)

Legend:
[1] = Reaction of hydrolyzed silanes with treatment enhancers, solution appearance; format: physicochemical
test microbes = assay: Dow Corning Test Method 0923 Dynamic Shake Flask Test (ASTM E-2149-01), Table I; format: cell-based; details: shingle, vs untreated controls
Procedure: (§1) The BPB test is a standardized test known as the Bromphenol Blue Extraction Method having a Dow Corning Corporate test number 0824, except that the test was modified in the following manner. The chlorinated solvent has been eliminated and the wavelength is 595 nm. Further, the Dow Corning® Q25211 has been substituted for the Triton RTM.X100 wetting agent of the test. What is measured is the diminution of the BPB absorbance at 595 nm relative to the BPB standard solution and it is reported in percent extraction. Antimicrobial efficacy was determined using the Dow Corning Test Method 0923 Dynamic Shake Flask Test (ASTM E-2149-01) unless otherwise stated.
Application technologies were compared for a shingle substrate at constant add levels and room temperature conditions. Samples were prepared as follows and compared. The Samples included: antimicrobial agent (AA) by itself (Sample 1) and the (AA) in 0.1M Na2C2O4 (Sample 2) with a polyoxyethylene nonylphenol (the surfactant). Sample 1 treated with Methyl Siliconate is Sample 3, Sample 1 treated with sodium silicate is Sample 4 and sample 1 treated with Everwood is Sample 5. The Samples were handled as in example 1 and tested.

E. Coli = assay: Dynamic Shake Flask Test, % E. Coli reduction; format: cell-based; details: Example 4, AA 1.25 mg/inch^2, vs untreated control substrates
Procedure: as §1
Studies were carried out to determine if this invention was applicable to various substrates in the building products area, such as Oriented Strand Board (OSB), vinyl siding, polymer wood composite decking and dimensional lumber. The application process was: samples were cut to 2 inches by 2 inches and weighed prior to application. A hand pump mist sprayer was used to treat the substrate. The applications of the silicate/siliconate and (AA) were kept to a minimum of less than 3 seconds application timne. Treated samples were next rinsed with copious cold water to remove any excess treatment material. There was no heating or other curing or drying of the samples.

## potassium methyl siliconate [DC-777]
[1]; treatment enhancer alone, 1.5% actives level, after 4 days of standing
  appearance on standing: white precipitate

## CCO[Si](CC(C)C)(OCC)OCC [Sample Z-6043, i-butyltriethoxysilane]
[1]
  Appearance (at Time Min.): clear
  Appearance (at Time hours): clear

## CCCCCCCCCCCCCCCCCC[N+](C)(C)CCC[Si](OC)(OC)OC.[Cl-] [Sample 1, N,N-dimethyl-N-Octadecyl-3-(trimethoxysilyl)propanaminium chloride]
Test microbes; AA Actives 0.50%
  % Reduction: 0%
Test microbes; AA Actives 1%
  % Reduction: 0%
E. Coli; OSB
  OSB % Red. ext. (% E. Coli Reduction): 31%
E. Coli; decking
  decking % Red. ext. (% E. Coli Reduction): 0%
E. Coli; shingle
  shingle % Red. ext. (% E. Coli Reduction): 11%
E. Coli; siding
  siding % Red. ext. (% E. Coli Reduction): 0%
E. Coli; wood
  wood % Red. ext. (% E. Coli Reduction): 21%
